Where a name gives a salt, the structure may show the parent alone.
Target: Glycogen synthase kinase-3 beta (Homo sapiens, UniProt P49841)
Assay: concentration-response blocking of human GSK3B – biochemical, luminescence, cell-free homogeneous, retest, dose response (AID 434954)

Sequence of Glycogen synthase kinase-3 beta (P49841 whole entry): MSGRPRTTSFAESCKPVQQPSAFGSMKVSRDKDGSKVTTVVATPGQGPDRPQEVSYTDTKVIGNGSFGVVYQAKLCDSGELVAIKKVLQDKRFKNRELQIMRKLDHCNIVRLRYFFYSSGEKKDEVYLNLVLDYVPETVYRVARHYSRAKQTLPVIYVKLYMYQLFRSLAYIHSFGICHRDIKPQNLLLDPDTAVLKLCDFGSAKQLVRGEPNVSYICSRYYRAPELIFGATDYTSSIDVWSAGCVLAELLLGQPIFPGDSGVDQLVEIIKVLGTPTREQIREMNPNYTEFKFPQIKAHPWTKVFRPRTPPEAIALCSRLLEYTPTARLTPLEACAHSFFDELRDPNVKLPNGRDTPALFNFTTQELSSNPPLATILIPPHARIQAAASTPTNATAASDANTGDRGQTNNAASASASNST

| EC50 [µM] | SMILES |
| --- | --- |
| 16.9 | Cc1ccnc(NC(=O)CCC(=O)N(CC(=O)NCc2ccccc2)Cc2cccs2)c1 |
| > 300 | Cc1nn(-c2ccccc2)c(Cl)c1C(=O)NCc1cccs1 [MLS000394567] |
| > 300 | CCn1nc(NC(=O)C2CCCO2)c2cc3cccc(C)c3nc21 (stereo unspecified) [Tetrahydro-furan-2-carboxylic acid (1-ethyl-8-methyl-1H-pyrazolo[3,4-b]quinolin-3-yl)-amide] |
| 15.2 | N#Cc1c(Cl)nc(-c2ccncc2)nc1-c1ccccc1 [SMR000549420] |
| > 300 | O=C(CS(=O)(=O)c1ccccc1)Nc1ncc([N+](=O)[O-])s1 [2-(benzenesulfonyl)-N-(5-nitro-1,3-thiazol-2-yl)acetamide] |
| > 300 | FC(F)(F)c1ccc(CSc2nccn2-c2ccccc2)cc1 |
| 140 | S=c1[nH]c(-c2ccccc2)cn1N=Cc1ccncc1 |
| > 300 | C[O+]=N[CH-]c1ccc(N2CCOCC2)c([N+](=O)[O-])c1 [N-methoxy-1-(4-morpholin-4-yl-3-nitro-phenyl)methanimine] |
| > 300 | CC1CCN(c2nc3c(N)ncnc3n2[C@@H]2O[C@H](CO)[C@@H](O)[C@H]2O)CC1 |
| > 300 | Cc1ccc(NS(=O)(=O)c2cccc(C(=O)NN=Cc3c(C)nn(-c4ccccc4)c3N3CCCC3)c2)c(C)c1 [MLS000394744] |
| > 300 | CCCn1nc(NC(=O)C(C)C)c2cc3cc(OC)ccc3nc21 [N-(6-methoxy-1-propylpyrazolo[3,4-b]quinolin-3-yl)-2-methylpropanamide] |
| > 300 | O=C(NCC1COc2ccccc2O1)c1ccccc1 (stereo unspecified) [SMR000069822] |
| > 300 | Cc1cc2c(N3CCCCC3C)ncnc2s1 (stereo unspecified) [SMR000033135] |
| 26.6 | CCc1ccc(CN=Nc2ncnc3nc[nH]c23)cc1 [MLS000419199] |
| > 300 | CCOc1cccc(C(=O)Nc2cccc(-c3nc4ncccc4o3)c2C)c1 [3-ethoxy-N-[2-methyl-3-([1,3]oxazolo[4,5-b]pyridin-2-yl)phenyl]benzamide] |
| > 300 | O=C(Nc1ncc([N+](=O)[O-])s1)c1ccco1 [N-(5-nitro-2-thiazolyl)-2-furancarboxamide] |
| > 300 | O=[N+]([O-])c1cc(Cl)ccc1N1CCCCC1 [MLS000856435] |
| > 300 | COc1ccc2cc(C(=O)CS(=O)(=O)c3ccccc3)c(=O)oc2c1 [3-[2-(benzenesulfonyl)acetyl]-7-methoxychromen-2-one] |
| 0.735 | c1csc(C2=Nn3c(nnc3-c3ccncc3)SC2)c1 |
| 86.3 | COc1ccc(-c2nn(CCC#N)cc2CN=O)cc1 |
| > 300 | O=C(NN=Cc1cccnc1)c1cc(-c2ccccc2)nc2c(Cl)cccc12 [MLS001230128] |
| > 300 | CC1CC(=O)Nc2ccc([N+](=O)[O-])cc2N1C (stereo unspecified) [SMR000207335] |
| > 300 | CCOC(=O)CCNCC1COc2ccccc2O1 (stereo unspecified) [ethyl 3-(2,3-dihydro-1,4-benzodioxin-3-ylmethylamino)propanoate;hydrochloride] |
| > 300 | Cc1nccc(-c2cccc(NC(=O)c3ccccc3Cl)c2)n1 [MLS000859188] |
| > 300 | COc1cc([CH+][N-]NC(=O)c2ccc(O)cc2)ccc1Oc1ccc([N+](=O)[O-])cn1 [4-hydroxy-N-[[3-methoxy-4-(5-nitropyridin-2-yl)oxyphenyl]methylideneamino]benzamide;propan-2-ol] |

| EC50 [µM] | SMILES |
| --- | --- |
| > 300 | CCN(CC)C(=O)Cn1cc(C(=O)C(=O)Nc2ccc3c(c2)OCCO3)c2ccccc21 |
| > 300 | COc1ccccc1-c1cc2ccccc2[nH]1 [2-(1H-indol-2-yl)phenyl methyl ether] |
| > 300 | O=c1cc(-c2ccccc2Cl)oc2c(Br)ccc(O)c12 [8-bromo-2-(2-chlorophenyl)-5-hydroxy-1-benzopyran-4-one] |
| > 300 | CC1(C)CC(=O)C(C2(O)C(=O)Nc3ccccc32)CO1 (stereo unspecified) [MLS000689086] |
| > 300 | S=C1Nc2cc(Cl)ccc2Sc2ccccc21 [MLS000698392] |
| 11.9 | COc1ccc(OC)c(Nc2oc3cc(=O)ccc-3cc2C(N)=O)c1 [2-[(Z)-2,5-Dimethoxy-phenylimino]-7-hydroxy-2H-chromene-3-carboxylic acid amide] |
| > 300 | Cc1ccc(CNc2nc(N)c([N+](=O)[O-])c(Nc3ccc(F)cc3)n2)cc1 [N4-(4-fluorophenyl)-N2-[(4-methylphenyl)methyl]-5-nitro-pyrimidine-2,4,6-triamine] |
| > 300 | CN1CCc2c(sc3c2c(=O)n(-c2ccccc2)c2nnc(SCc4ccccc4)n32)C1 [SMR000039895] |
| 2.36 | O=C(CN1C(=O)CCC1=O)Nc1cccc2c1C(=O)NC2=O [MLS000703473] |
| > 300 | O=C(CCc1nnc(CCCCc2ccccc2)o1)NCc1cccc(F)c1 [N-(3-fluorobenzyl)-3-[5-(4-phenylbutyl)-1,3,4-oxadiazol-2-yl]propanamide] |
| 4.3 | O=C(Cc1ccc(Br)cc1)Nc1ncc([N+](=O)[O-])s1 [SMR000429978] |
| 9.65 | Cc1n[nH]c2c1[C@@H](c1ccccc1[N+](=O)[O-])C(C#N)C(=N)O2 (stereo partly drawn) [(4S)-6-azanyl-3-methyl-4-(2-nitrophenyl)-2,4-dihydropyrano[2,3-c]pyrazole-5-carbonitrile] |
| > 300 | O=C(NCC(c1ccco1)N1CCN(c2ccc(F)cc2)CC1)c1cccs1 (stereo unspecified) [SMR000808277] |
| > 300 | c1cncc(CNc2nc(-c3cccnc3)nc3ccccc23)c1 [2-pyridin-3-yl-N-(pyridin-3-ylmethyl)quinazolin-4-amine] |
| 21.3 | Cc1ccnc(NC(=O)CCC(=O)N(CC(=O)NCCc2ccccc2)Cc2cccs2)c1 [N-(4-methylpyridin-2-yl)-N'-[2-oxidanylidene-2-(2-phenylethylamino)ethyl]-N'-(thiophen-2-ylmethyl)butanediamide] |
| > 300 | COc1ccc(-c2nn(-c3ccccc3)cc2CN=Nc2ccccn2)cc1 [MLS000336205] |
| 12.8 | NNc1ncnc2c1cnn2-c1ccccc1 [(1-phenylpyrazolo[3,4-d]pyrimidin-4-yl)diazane] |
| 35.9 | CC1CN(c2nc(Nc3ccccc3)nc(N)c2[N+](=O)[O-])CC(C)O1 (stereo unspecified) |
| > 300 | Cc1cccc(OCc2nnc(SCC(=O)Nc3sc(C)c(C)c3C#N)n2C)c1 [N-(3-cyano-4,5-dimethylthiophen-2-yl)-2-[[4-methyl-5-[(3-methylphenoxy)methyl]-1,2,4-triazol-3-yl]sulfanyl]acetamide] |
| > 300 | COc1ccc2oc3cc(C)[n+]([O-])c(-c4ccc(Br)cc4)c3c2c1 [MLS000588179] |
| > 300 | Cc1ccccc1-c1nc(CN2CCC(C(=O)N3CCN(c4ccccn4)CC3)CC2)c(C)o1 [[1-[[5-methyl-2-(2-methylphenyl)-4-oxazolyl]methyl]-4-piperidinyl]-[4-(2-pyridinyl)-1-piperazinyl]methanone] |
| 49.7 | CNc1nc(N)c([N+](=O)[O-])c(NCC2CCCO2)n1 (stereo unspecified) [SMR000436173] |
| > 300 | Oc1cccc(Nc2nc(-c3ccccc3)nc3ccccc23)c1 |
| 12.4 | CNc1nc(N)c([N+](=O)[O-])c(Nc2cccc(F)c2)n1 [SMR000436035] |
| 7.48 | COc1ccc(CC(=O)Nc2nc(-c3ccccc3)c(C(C)=O)s2)cc1OC [2-(3,4-dimethoxyphenyl)-N-(5-ethanoyl-4-phenyl-1,3-thiazol-2-yl)ethanamide] |

| SMILES | EC50 [µM] |
| --- | --- |
| O=C1Nc2ccccc2C1=Cc1cnc[nH]1 [SMR000180717] | 2.99 |

Reference: BindingDB's records for doi:10.7270/Q2TX3CTT (Broad Institute, 2010)
